Results taken from patent US6699849B1, “Cyclodextrin complexes of benzodiazepines” (Cyclops, ehf., priority 1998, dated 2004).

How the values were obtained:
Assay type in all cases: physicochemical
[1] = Solubility of midazolam versus pH with cyclodextrins and 10% (v/v) acetic acid
Description: Excess amount of the drug was added to the aqueous HPβCD solution and the suspension formed was heated in a sealed container in an autoclave (120-140° C. for 20-40 minutes). After equilibration at room temperature (22-23° C.) for seven days, the suspension was filtered through a 0.45 μm membrane filter, diluted with aqueous methanolic solution and the amount of dissolved midazolam determined by a high pressure liquid chromatographic method (HPLC). FIG. 4 illustrates the effects of cyclodextrins, pH and 10% (v/v) acetic acid on the solubility of midazolam in aqueous solutions: pure aqueous buffer solution (▴); aqueous 10% (v/v) acetate solution (●); 10% (w/v) HPβCD solution containing 0.10% (w/v) HPMC in aqueous 10% (v/v) acetic acid solution (▪); 10% (w/v) aqueous SBEβCD solution in aqueous 10% (v/v) acetate (♦).

[2] = Solubility of midazolam versus pH in buffer, 10% HPβCD and 10% HPβCD + 0.10% HPMC; details: 10% (w/v) HPβCD + 0.10% (w/v) HPMC, FIG. 3
Description: Midazolam is a water-insoluble weak base (pKa 6.2) which forms a somewhat water-soluble cation in acidic solution. Solubility (S) of midazolam at several different pH levels was determined in: a) pure aqueous buffer solutions (i.e. without HPβCD and HPMC); b) aqueous buffer solutions containing 10% (w/v) 2-hydroxypropyl-β-cyclodextrin (HPβCD) of molar substitution (MS)=0.3; and c) aqueous solutions containing 10% (w/v) 2-hydroxypropyl-β-cyclodextrin (HPβCD) of molar substitution (MS)=0.3 and 0.10% (w/v) hydroxypropyl methylcellulose (HPMC) 4000. Excess amount of the drug was added to the aqueous solution and the suspension formed was heated in a sealed container in an autoclave (120-140° C. for 20-40 minutes). After equilibration at room temperature (22-23° C.) for seven days, the suspension was filtered through a 0.45 μm membrane filter, diluted with aqueous methanolic solution and the amount of dissolved midazolam determined by a high pressure liquid chromatographic method (HPLC). FIG. 3 illustrates the effect of pH (i.e. the ring-opening) on the solubility of midazolam (pKa 6.2) in pure aqueous buffer solutions (●), aqueous buffer solutions containing 10% (w/v) HPβCD (▪), and aqueous buffer solutions containing both 10% (w/v) HPβCD and 0.10% (w/v) HPMC (♦) at room temperature.

[3] = Effect of pH and cyclodextrins on the fraction of the open form (diazepine ring-opening) of benzodiazepines
Description: The cyclodextrin concentration was 10% (w/v) and the benzodiazepine concentration was 1×10^−4 M. The concentration of the closed form was determined immediately after dissolving the benzodiazepine in the aqueous cyclodextrin solution and again 24 hours later (i.e. after equilibration at 23° C.). Preliminary experiments had shown that equilibrium between the closed and the open form was attained within 3 hours at 23° C.

[4] = First-order rate constant of diazepine ring-closure (regeneration of the benzodiazepine); details: pH 7.5, 37° C.
Description: The effect of cyclodextrins and organic solvents on the rate of diazepine ring-closure of several selected benzodiazepines was investigated. Stock solutions containing 1.0×10^−3 M of the benzodiazepine in 0.10 M aqueous hydrochloric acid solution (pH approx. 1.1) were prepared and stored at 37.0° C. The benzodiazepines were in the ring-open form in these stock solutions. Aqueous 0.50 M tris buffer (pH 7.50) solution was prepared. The observed first-order rate constant for the closing (i.e. formation) of the benzodiazepine ring was determined in the following reaction media: a) pure aqueous tris buffer solution; b) aqueous tris buffer solution containing 10% (w/v) cyclodextrin; c) tris buffer solution containing 10% (w/v) cyclodextrin and 10% (v/v) ethanol (EtOH); d) tris buffer solution containing 10% (w/v) cyclodextrin and 50% (v/v) EtOH; e) tris buffer solution containing 10% (w/v) cyclodextrin and 10% (v/v) dimethylsulfoxide (DMSO); and f) tris buffer solution containing 10% (w/v) cyclodextrin and 50% (w/v) DMSO. The stock solution (30 μl) was added to 1.50 ml of the reaction media which had previously been equilibrated to 37.0° C. and the first-order rate constant for the appearance of the closed form determined from the appearance of the closed form as observed on HPLC. Tables 5, 6 and 7 show the effects of cyclodextrins, EtOH and DMSO on the observed first-order rate constant for the regeneration of alprazolam, triazolam and midazolam, respectively. In pure aqueous buffer solutions, addition of EtOH and DMSO decreases somewhat the rate of ring closure, at least in the case of alprazolam and midazolam. Addition of cyclodextrin or the organic solvents have insignificant effect on the pH under these conditions. The dielectric constant of the reaction medium will, however, decrease upon addition of the organic solvents. It is possible that this decrease in the dielectric constant will reduce the ability of the reaction media to stabilize the transition state which could explain the decrease in the observed rate constant. […] The cyclodextrins formed stable complexes with the ring-open form of the drug and, thus, the rate decreased upon addition of cyclodextrin. […] EtOH and DMSO will compete with the diazepine ring-open form for a space in the cyclodextrin cavity resulting in decreased complexation.

SMILES: Cc1ncc2n1-c1ccc(Cl)cc1C(c1ccccc1F)=NC2 [midazolam, 8-chloro-6-(2-fluorophenyl)-1-methyl-4H-imidazo[1,5-a][1,4]benzodiazepine]
- effect of 10% (v/v) acetic acid co-solvent on fraction of the open ring form [1]: small decrease
- effect of addition of 10% (v/v) acetic acid on complexation ([1]; cyclodextrin solutions, FIG. 4): significantly improves
- effect of addition of HPMC on complexation efficiency [2]: significantly improves
- Fraction open ([3]; 10% (w/v) HPβCD, pH 2, approx. 23° C.): 0.56
- Fraction open ([3]; 10% (w/v) HPβCD, pH 3, approx. 23° C.): 0.18
- Fraction open ([3]; 10% (w/v) HPβCD, pH 4, approx. 23° C.): 0.23
- Fraction open ([3]; 10% (w/v) SBEβCD, pH 2, approx. 23° C.): 0.81
- Fraction open ([3]; 10% (w/v) SBEβCD, pH 3, approx. 23° C.): 0.39
- Fraction open ([3]; 10% (w/v) SBEβCD, pH 4, approx. 23° C.): 0.11
- Fraction open ([3]; 10% (w/v) αCD, pH 2, approx. 23° C.): 0.79
- Fraction open ([3]; 10% (w/v) αCD, pH 3, approx. 23° C.): 0.32
- Fraction open ([3]; 10% (w/v) αCD, pH 4, approx. 23° C.): 0.10
- Fraction open ([3]; 10% (w/v) γCD, pH 2, approx. 23° C.): 0.61
- Fraction open ([3]; 10% (w/v) γCD, pH 3, approx. 23° C.): 0.21
- Fraction open ([3]; 10% (w/v) γCD, pH 4, approx. 23° C.): 0.17
- Fraction open ([3]; no cyclodextrin, pH 2, approx. 23° C.): 0.74
- Fraction open ([3]; no cyclodextrin, pH 3, approx. 23° C.): 0.28
- Fraction open ([3]; no cyclodextrin, pH 4, approx. 23° C.): 0.18
- observed first-order rate constant, ring formation ([4]; 10% HPβCD, 10% DMSO): 0.0336 min⁻¹
- observed first-order rate constant, ring formation ([4]; 10% HPβCD, 10% EtOH): 0.0386 min⁻¹
- observed first-order rate constant, ring formation ([4]; 10% HPβCD, 50% DMSO): 0.084 min⁻¹
- observed first-order rate constant, ring formation ([4]; 10% HPβCD, 50% EtOH): 0.0653 min⁻¹
- observed first-order rate constant, ring formation ([4]; 10% HPβCD, pure water): 0.0277 min⁻¹
- observed first-order rate constant, ring formation ([4]; 10% RMβCD, 10% DMSO): 0.0494 min⁻¹
- observed first-order rate constant, ring formation ([4]; 10% RMβCD, 10% EtOH): 0.0424 min⁻¹
- observed first-order rate constant, ring formation ([4]; 10% RMβCD, 50% DMSO): 0.0848 min⁻¹
- observed first-order rate constant, ring formation ([4]; 10% RMβCD, 50% EtOH): 0.0699 min⁻¹
- observed first-order rate constant, ring formation ([4]; 10% RMβCD, pure water): 0.0305 min⁻¹
- observed first-order rate constant, ring formation ([4]; 10% SBEβCD, 10% DMSO): 0.0224 min⁻¹
- observed first-order rate constant, ring formation ([4]; 10% SBEβCD, 10% EtOH): 0.033 min⁻¹
- observed first-order rate constant, ring formation ([4]; 10% SBEβCD, 50% DMSO): 0.0855 min⁻¹
- observed first-order rate constant, ring formation ([4]; 10% SBEβCD, 50% EtOH): 0.065 min⁻¹
- observed first-order rate constant, ring formation ([4]; 10% SBEβCD, pure water): 0.013 min⁻¹
- observed first-order rate constant, ring formation ([4]; No CD, 10% DMSO): 0.138 min⁻¹
- observed first-order rate constant, ring formation ([4]; No CD, 10% EtOH): 0.126 min⁻¹
- observed first-order rate constant, ring formation ([4]; No CD, 50% DMSO): 0.109 min⁻¹
- observed first-order rate constant, ring formation ([4]; No CD, 50% EtOH): 0.0841 min⁻¹
- observed first-order rate constant, ring formation ([4]; No CD, pure water): 0.179 min⁻¹
